Experiment [1] deals with MDA-MB-453. The experiment can be described thus: normalised viability (% of control), CellTiter-Blue; higher = more viable cells (100 = DMSO, 0 = benzethonium chloride kill control). The note with it: incubation time: 72 h. Here is the method: (§1)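 DSRT, CellTiter-Blue viability, 72 h incubation. Signal is normalised to DMSO and benzethonium chloride controls. Value is the normalised response at dose 1.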

Experiment [2] has as its system CAL-148. The description is as above. The following applies: incubation time: 72 h. Here is the method:
as §1

The subject of experiment [3] is MDA-MB-468. Described as above. The note with it: incubation time: 72 h. Here is the method:
as §1

The subject of experiment [4] is HDQ-P1. The description is as above. The note with it: incubation time: 72 h. On the procedure:
as §1

Experiment [5] has as its system DU-4475. Described as above. The note with it: incubation time: 72 h. Here is the method: as §1
Experiment [6] has as its system SK-BR-3. The experiment is described as above. The note with it: incubation time: 72 h. Here is the method: as §1
The subject of experiment [7] is CAL-51. The experiment is described as above. The following applies: incubation time: 72 h. On the procedure: as §1
Experiment [8] concerns HCC1937. Described as above. The following applies: incubation time: 72 h. Here is the method: as §1
The subject of experiment [9] is MFM-223. Described as above. The note with it: incubation time: 72 h. Here is the method:
as §1

Experiment [10] relates to MDA-MB-436. Described as above. The note with it: incubation time: 72 h. Here is the method:
as §1

The subject of experiment [11] is CAL-120. The description is as above. The note with it: incubation time: 72 h. On the procedure: as §1
Experiment [12] relates to Hs578T. The description is as above. The note with it: incubation time: 72 h. Here is the method: as §1
Experiment [13] relates to HCC1143. Described as above. The following applies: incubation time: 72 h. On the procedure: as §1
In experiment [14] the test system is BT-549. Described as above. The following applies: incubation time: 72 h. On the procedure:
as §1

Experiment [15] has as its system BT-474. The description is as above. The note with it: incubation time: 72 h. On the procedure:
as §1

In experiment [16] the test system is HCC1599. The experiment is described as above. The following applies: incubation time: 72 h. Here is the method: as §1
The test system of experiment [17] is CAL-85-1. Described as above. The following applies: incubation time: 72 h. On the procedure: as §1
The test system of experiment [18] is MDA-MB-231. The description is as above. The note with it: incubation time: 72 h. Here is the method: as §1
Experiment [19] deals with HCC1143. The experiment can be described thus: normalised viability (% of control), CellTiter-Blue; higher = more viable cells (about 100 = DMSO control). The following applies: incubation time: 72 h. Summed up: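 Normalised viability is given for a single listed concentration of the series. In 384-well plates, breast cancer cell lines were incubated 72 h with compound, then read with CellTiter-Blue (2 h, 37 °C) at 560/590 nm. Per-plate scaling set vehicle to 100 and a positive kill control to 0, with Z'-factor quality control.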

In experiment [20] the test system is HDQ-P1. The note with it: 72 h. The method, boiled down: (§2)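 Plates of 384 wells holding compound in 5 µl medium received breast cancer cell lines in 20 µl suspension and were incubated 72 h. CellTiter-Blue (2.5 µl, 2 h, 37 °C) was used for viability, read at 560/590 nm, and every plate was normalised to vehicle and a positive kill control and assessed by Z'-factor. The EC50 derives from a percent-inhibition dose-response curve fit censored at the highest concentration, leaving out rows whose drug sensitivity score was zero.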

Experiment [21] concerns MDA-MB-453. The following applies: 72 h. Summed up: as §2
In experiment [22] the test system is CAL-85-1. The note with it: 72 h. On the procedure: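 Drug sensitivity and resistance testing (DSRT) of breast cancer cell lines in 384-well plates, 5 concentrations in 10-fold dilutions over a compound-specific 10,000-fold range. After 72 h, cytotoxicity was read by CellTox Green fluorescence and viability by CellTiter-Glo luminescence (multiplexed), normalised to DMSO and benzethonium chloride controls. EC50 is the inflection point of the fitted dose-response curve (bottom asymptote free, so it can be relative for partial curves) and is censored at the highest tested concentration. Rows with DSS 0 (no meaningful response) were excluded.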

Experiment [23] deals with MFM-223. The following applies: 72 h. Summed up:
as §2

The subject of experiment [24] is MDA-MB-436. The following applies: 72 h. The method, boiled down: as §2
In experiment [25] the test system is BT-549. The note with it: 72 h. The method, boiled down:
as §2

Data on four molecules can be found in the supplement of paper PMC4862054.

SMILES strings stand for the structures. “And” between values parts separate entries of the source, which are not always exact repeats. Identical values can stand only once. Some results are limits rather than exact numbers.

As to `c1cc(CN2CCCNCCNCCCNCC2)ccc1CN1CCCNCCNCCCNCC1` [Plerixafor], the normalised viability in experiment [1] (0.25 nM) came to 129%; in experiment [2] (0.25 nM) it was 87.3%; in experiment [3] (0.25 nM), 96.5%; in [4] (0.25 nM) it was 104%; in experiment [5] (0.25 nM), 105%; in experiment [6] (0.25 nM), 91.5%. Further, the normalised viability amounted to 103% in experiment [7] (0.25 nM); 82.5% in experiment [8] (0.25 nM); 99% in [9] (0.25 nM); 110% in experiment [10] (0.25 nM); 90% in experiment [11] (0.25 nM); 104% in experiment [12] (0.25 nM). The normalised viability amounted to 90.9% in experiment [13] (0.25 nM); 86.8% in experiment [14] (0.25 nM); 84% in [15] (0.25 nM); 107% in experiment [16] (0.25 nM); 84.2% in [17] (0.25 nM); 93.8% in [18] (0.25 nM). Besides, the normalised viability in [19] (25 nM) came out at 83.4%.
In the case of `CCN(CC)CCNC(=O)c1c(C)[nH]c(/C=C2\C(=O)Nc3ccc(F)cc32)c1C` [Sunitinib], the normalised viability in [1] (0.1 nM) is 99.7% and 100%; in experiment [2] (0.1 nM), 104% and 107%; in experiment [3] (0.1 nM), 94.7% and 98.5%; in experiment [4] (0.1 nM) it was 100% and 93.2%; in experiment [5] (0.1 nM), 101% and 89.2%; in experiment [6] (0.1 nM), 94.2% and 93.7%. The normalised viability in experiment [7] (0.1 nM) is 111% and 96%; in experiment [8] (0.1 nM), 91.7% and 88.2%; in experiment [9] (0.1 nM), 99.6% and 109%; in experiment [10] (0.1 nM), 98.4% and 105%; in experiment [12] (0.1 nM) it was 104% and 115%; in experiment [14] (0.1 nM), 87.1% and 85%. Further, the normalised viability in experiment [15] (0.1 nM) is 81% and 89.3%; in experiment [16] (0.1 nM) it was 112% and 101%; in [17] (0.1 nM), 89.3% and 104%; in [18] (0.1 nM) it was 82.2% and 85.6%. Moreover, the “EC50, CellTiter-Blue viability” value in [20] came out at 721 nM.
For the molecule `Cc1ccc(Nc2nccc(N(C)c3ccc4c(C)n(C)nc4c3)n2)cc1S(N)(=O)=O` [Pazopanib], the normalised viability amounted to 106% in experiment [1] (1 nM); 89.3% in [2] (1 nM); 106% in experiment [3] (1 nM); 72.8% in experiment [4] (1 nM); 98.9% in experiment [5] (1 nM); 105% in experiment [6] (1 nM). For the same molecule, the normalised viability in experiment [7] (1 nM) amounted to 103%; in experiment [8] (1 nM) it was 77.9%; in experiment [9] (1 nM), 90%; in experiment [10] (1 nM), 95.8%; in experiment [11] (1 nM), 78.5%; in experiment [12] (1 nM), 94.8%. The normalised viability in experiment [13] (1 nM) was determined as 87.1%; in [14] (1 nM), 110%; in experiment [15] (1 nM), 93.2%; in experiment [16] (1 nM) it was 103%; in [17] (1 nM), 93.6%; in experiment [18] (1 nM) it was 97.7%. Besides, the normalised viability in experiment [19] (100 nM) was 85.8%. The “EC50, CellTiter-Blue viability” value was 608 nM in experiment [21]; above 10000 nM in experiment [20]; 34.6 nM in [23]; 107 nM in experiment [24]; 8260 nM in experiment [25]. Moreover, the “EC50, CellTox Green” value in experiment [22] is above 10000 nM.
Turning to `CC(=O)OC[C@H]1O[C@@H]([S-])[C@H](OC(C)=O)[C@@H](OC(C)=O)[C@@H]1OC(C)=O.CCP(CC)CC.[Au+]` [Auranofin], the “EC50, CellTox Green” value in experiment [22] was determined as 917 nM.
